Measurements: ChEMBL document CHEMBL3638666, “Selective kinase inhibitors” (2013)

Experiments:
[1] = target: Non-receptor tyrosine-protein kinase TYK2 (Homo sapiens, UniProt P29597); assay: (§1) In Vitro Kinase Enzyme Assay: In vitro kinase enzyme assay using Jak3, Jak2, Jak1, and Tyk2.
[2] = target: Tyrosine-protein kinase JAK1 (Homo sapiens, UniProt P23458); assay: as §1
[3] = target: Tyrosine-protein kinase JAK2 (Homo sapiens, UniProt O60674); assay: as §1
[4] = target: T1, Tyrosine-protein kinase JAK3 (Homo sapiens, UniProt P52333); assay: as §1
T1 sequence (P52333 whole entry): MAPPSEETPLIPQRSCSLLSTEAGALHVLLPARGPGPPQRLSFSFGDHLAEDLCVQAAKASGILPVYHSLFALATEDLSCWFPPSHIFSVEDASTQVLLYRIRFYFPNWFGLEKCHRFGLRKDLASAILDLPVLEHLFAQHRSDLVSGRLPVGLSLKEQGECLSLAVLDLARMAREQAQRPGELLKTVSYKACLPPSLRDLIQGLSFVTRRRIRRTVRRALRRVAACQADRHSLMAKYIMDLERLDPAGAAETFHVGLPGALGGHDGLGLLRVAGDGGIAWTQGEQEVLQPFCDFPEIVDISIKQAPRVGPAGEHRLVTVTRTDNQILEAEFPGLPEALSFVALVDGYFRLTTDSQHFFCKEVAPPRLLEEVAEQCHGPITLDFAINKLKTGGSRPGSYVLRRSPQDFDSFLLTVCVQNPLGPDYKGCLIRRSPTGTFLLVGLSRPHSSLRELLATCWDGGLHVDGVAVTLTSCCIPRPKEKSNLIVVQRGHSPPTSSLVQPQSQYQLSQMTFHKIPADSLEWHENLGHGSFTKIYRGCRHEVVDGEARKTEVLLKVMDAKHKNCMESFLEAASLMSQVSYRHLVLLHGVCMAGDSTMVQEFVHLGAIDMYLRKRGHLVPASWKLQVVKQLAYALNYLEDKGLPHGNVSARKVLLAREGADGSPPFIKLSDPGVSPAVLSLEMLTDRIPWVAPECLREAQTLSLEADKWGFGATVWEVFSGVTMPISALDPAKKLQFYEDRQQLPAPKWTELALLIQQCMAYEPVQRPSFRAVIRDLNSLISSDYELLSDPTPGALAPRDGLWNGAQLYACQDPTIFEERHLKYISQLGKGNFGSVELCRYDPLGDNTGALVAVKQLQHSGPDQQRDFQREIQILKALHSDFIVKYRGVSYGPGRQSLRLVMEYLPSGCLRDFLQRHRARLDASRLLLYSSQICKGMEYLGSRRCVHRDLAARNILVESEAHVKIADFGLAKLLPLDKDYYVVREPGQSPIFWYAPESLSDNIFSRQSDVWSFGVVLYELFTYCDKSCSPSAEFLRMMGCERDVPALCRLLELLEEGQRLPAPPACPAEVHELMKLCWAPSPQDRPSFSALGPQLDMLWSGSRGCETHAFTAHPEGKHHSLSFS

Sequence of Non-receptor tyrosine-protein kinase TYK2 (P29597 whole entry): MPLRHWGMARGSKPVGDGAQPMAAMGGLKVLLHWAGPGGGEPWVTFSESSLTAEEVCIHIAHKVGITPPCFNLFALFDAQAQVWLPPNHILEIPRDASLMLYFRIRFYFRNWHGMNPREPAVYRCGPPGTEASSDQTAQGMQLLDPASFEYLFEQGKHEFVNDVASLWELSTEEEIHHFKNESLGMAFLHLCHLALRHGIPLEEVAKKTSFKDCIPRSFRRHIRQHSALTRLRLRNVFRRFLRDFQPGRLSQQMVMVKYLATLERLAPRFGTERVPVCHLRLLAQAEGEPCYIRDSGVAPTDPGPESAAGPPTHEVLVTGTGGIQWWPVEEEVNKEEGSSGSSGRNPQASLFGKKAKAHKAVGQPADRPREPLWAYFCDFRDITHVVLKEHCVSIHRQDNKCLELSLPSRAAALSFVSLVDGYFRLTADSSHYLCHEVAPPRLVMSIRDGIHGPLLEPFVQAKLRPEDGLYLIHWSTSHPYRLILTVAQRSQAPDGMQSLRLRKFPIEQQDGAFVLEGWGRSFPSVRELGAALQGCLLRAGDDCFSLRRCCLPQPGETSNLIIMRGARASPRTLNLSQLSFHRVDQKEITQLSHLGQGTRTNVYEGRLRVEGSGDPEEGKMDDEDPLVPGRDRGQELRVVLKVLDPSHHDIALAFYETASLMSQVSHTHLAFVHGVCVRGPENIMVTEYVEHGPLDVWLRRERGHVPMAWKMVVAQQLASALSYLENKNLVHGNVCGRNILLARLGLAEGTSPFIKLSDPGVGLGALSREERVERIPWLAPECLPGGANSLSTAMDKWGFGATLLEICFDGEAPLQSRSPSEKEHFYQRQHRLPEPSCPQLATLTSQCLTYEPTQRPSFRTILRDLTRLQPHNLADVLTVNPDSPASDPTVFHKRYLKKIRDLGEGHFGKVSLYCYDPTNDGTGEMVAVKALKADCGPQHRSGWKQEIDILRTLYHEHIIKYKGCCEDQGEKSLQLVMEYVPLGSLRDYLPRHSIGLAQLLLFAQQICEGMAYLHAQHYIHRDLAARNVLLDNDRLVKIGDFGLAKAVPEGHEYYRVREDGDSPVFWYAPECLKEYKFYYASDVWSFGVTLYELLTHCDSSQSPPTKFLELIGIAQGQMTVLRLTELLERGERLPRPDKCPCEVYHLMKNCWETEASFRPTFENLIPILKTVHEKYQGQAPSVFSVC
Sequence of Tyrosine-protein kinase JAK1 (P23458 whole entry): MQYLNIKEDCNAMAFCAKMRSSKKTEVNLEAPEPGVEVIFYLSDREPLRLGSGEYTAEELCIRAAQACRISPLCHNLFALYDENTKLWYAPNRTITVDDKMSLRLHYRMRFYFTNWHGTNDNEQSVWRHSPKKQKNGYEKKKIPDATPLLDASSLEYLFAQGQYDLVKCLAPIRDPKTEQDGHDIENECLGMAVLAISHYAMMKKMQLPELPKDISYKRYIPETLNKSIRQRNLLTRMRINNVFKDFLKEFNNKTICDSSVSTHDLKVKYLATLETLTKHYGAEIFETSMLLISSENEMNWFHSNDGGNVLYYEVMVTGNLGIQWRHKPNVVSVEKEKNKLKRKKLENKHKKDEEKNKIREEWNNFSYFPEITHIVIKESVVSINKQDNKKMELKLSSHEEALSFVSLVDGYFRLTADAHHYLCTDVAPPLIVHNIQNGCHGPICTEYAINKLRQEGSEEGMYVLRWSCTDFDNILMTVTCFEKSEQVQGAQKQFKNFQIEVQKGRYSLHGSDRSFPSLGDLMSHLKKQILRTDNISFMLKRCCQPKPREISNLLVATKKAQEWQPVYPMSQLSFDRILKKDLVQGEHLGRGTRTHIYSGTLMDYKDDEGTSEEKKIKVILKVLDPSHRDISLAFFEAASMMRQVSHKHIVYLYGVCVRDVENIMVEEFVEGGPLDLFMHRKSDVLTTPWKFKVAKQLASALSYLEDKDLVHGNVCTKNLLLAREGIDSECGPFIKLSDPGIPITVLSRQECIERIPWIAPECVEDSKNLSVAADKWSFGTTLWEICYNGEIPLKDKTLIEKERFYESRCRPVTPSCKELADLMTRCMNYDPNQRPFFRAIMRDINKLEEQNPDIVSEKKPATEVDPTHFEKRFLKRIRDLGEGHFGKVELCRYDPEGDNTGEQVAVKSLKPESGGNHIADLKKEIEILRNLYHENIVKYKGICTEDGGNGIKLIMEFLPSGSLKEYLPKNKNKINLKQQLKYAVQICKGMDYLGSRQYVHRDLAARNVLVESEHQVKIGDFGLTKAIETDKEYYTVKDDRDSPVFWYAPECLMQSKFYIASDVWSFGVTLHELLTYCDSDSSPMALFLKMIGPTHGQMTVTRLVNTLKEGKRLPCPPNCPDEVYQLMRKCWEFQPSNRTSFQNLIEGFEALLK
Sequence of Tyrosine-protein kinase JAK2 (O60674 whole entry): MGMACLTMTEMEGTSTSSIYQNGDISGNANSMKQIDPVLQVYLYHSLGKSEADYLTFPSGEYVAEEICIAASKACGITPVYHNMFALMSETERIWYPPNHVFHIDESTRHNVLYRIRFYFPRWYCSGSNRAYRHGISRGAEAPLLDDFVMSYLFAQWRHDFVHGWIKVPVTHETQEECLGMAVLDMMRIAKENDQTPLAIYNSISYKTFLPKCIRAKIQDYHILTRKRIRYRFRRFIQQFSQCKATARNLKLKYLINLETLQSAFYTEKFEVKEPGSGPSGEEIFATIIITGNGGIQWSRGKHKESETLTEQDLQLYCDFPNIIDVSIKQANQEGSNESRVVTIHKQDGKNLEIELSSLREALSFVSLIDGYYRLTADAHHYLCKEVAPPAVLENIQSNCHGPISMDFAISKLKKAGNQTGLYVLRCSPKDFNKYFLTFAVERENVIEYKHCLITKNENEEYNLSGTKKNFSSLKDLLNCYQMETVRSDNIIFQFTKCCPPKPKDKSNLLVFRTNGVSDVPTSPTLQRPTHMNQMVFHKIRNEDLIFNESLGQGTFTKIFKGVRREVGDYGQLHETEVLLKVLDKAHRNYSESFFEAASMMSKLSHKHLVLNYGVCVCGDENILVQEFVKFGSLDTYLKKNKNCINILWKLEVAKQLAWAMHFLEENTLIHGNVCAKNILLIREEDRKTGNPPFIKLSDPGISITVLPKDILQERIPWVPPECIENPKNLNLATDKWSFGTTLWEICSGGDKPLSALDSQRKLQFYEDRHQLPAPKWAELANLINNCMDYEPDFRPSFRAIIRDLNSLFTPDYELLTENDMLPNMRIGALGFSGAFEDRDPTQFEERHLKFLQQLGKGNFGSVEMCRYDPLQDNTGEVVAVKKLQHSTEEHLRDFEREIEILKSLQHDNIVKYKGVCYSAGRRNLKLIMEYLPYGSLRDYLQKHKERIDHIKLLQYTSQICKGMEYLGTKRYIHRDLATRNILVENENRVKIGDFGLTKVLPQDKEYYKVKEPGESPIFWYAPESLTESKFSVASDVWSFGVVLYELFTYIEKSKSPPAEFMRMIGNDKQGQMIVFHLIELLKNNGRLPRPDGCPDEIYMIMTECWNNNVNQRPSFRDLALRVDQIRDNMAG

IC50 [1]: > 10 µM | IC50 [2]: > 10 µM | IC50 [3]: > 10 µM | IC50 [4]: 0.0003 µM
SMILES: O=C(CBr)Nc1cccc(-c2cnc3ccccc3n2)c1
